# Experimental data as given in patent US20240009256A1, “USE OF PROBIOTIC BACTERIUM-DERIVED EXTRACELLULAR MICRO- AND/OR NANOPARTICLES FOR THE TREATMENT OF DISEASE” (University of Louisville Research Foundation, Inc., priority 2020, published 2024).
# What was measured:
# AhR = experiment: ALD mouse model with AhR inhibitor CH223191 co-administration; assay type: in vivo
# Procedure: Animals and treatments. C57BL/6J mice (6-8 weeks of age) from Jackson Laboratory (Bar Harbor, Maine, United States of America) were maintained at 22° C. with a 12 hour light/dark cycle and initially had free access to a normal chow diet and tap water. Mice were then fed the Lieber DeCarli Diet containing 5% alcohol (w/v) (Alcohol-fed, AF) or isocaloric maltose dextrin (Pair-fed, PF). For the AF groups, mice were initially fed the control Lieber-DeCarli liquid diet (Bio-Serve, Flemington, New Jersey, United States of America) for 5 days to acclimate to the liquid diet. […] Mice in PF group were fed isocaloric maltose dextrin in substitution for alcohol in the liquid diet. On experimental Day 10, a bolus of EtOH (5 g/kg body weight) was given to AF mice by gavage 9 hours before harvesting, while mice in PF groups received a gavage of isocaloric maltose dextrin (10d+1b model). LDNPs were administered to mice in the last 3 days by daily gavage of 200 μL of LDNPs (50 μg protein content). AhR inhibitor, CH223191 (Sigma-Aldrich, St. Louis, Missouri, United States of America) was gavaged at […] in last three days. Control mice were gavaged with an equal volume of control vehicle (PBS).
# Whether the beneficial effects of LDNPs in ALD were mediated by the intestinal AhR pathway was tested by administrating the AhR inhibitor CH223191 to alcohol-fed mice. […] Importantly, the suppressive effect on hepatic fat by LDNP treatment was blunted when CH223191 was co-administered.
# [1] = tested on: lamina propria lymphocytes (LPLs); experiment: AhR signaling in lamina propria lymphocytes; assay type: cell-based, mouse; settings: AhR inhibitor 10 μM
# Caco-2 cells = experiment: Tight junction, Cyp1a1 and Nrf2 expression in Caco-2 cells; assay type: cell-based, human
# Procedure: (§1) Real-time quantitative PCR Total mRNA was extracted from mouse liver and intestine tissues using Trizol reagent (Life Technologies, Carlsbad, California, United States of America) according to the manufacturer's instruction and reverse-transcribed using cDNA Supermix (QuantaBio, Beverly, Massachusetts, United States of America). 18S and Gapdh were used as internal controls. Real-time qPCR was performed on an ABI 7300 fast real-time PCR thermocycler, where SYBR green PCR Master Mix (Applied Biosystems, Foster City, California, United States of America) was used. The relative gene expression was determined by the ΔΔCT method.
# Western Blotting. Protein was extracted from frozen intestine tissues. Western blotting was performed as described in (Shao et al. (2018) Intestinal HIF-1α deletion exacerbates alcoholic liver disease by inducing intestinal dysbiosis and barrier dysfunction. Journal of Hepatology 69:886-895). Antibodies used for western blotting for proteins ZO-1, Occludin, and Claudin-1 were from Cell Signaling (Danvers, Massachusetts, United States of America). Nrf-2, β-actin and Histone H3 antibodies were purchased from Abcam (Cambridge, Massachusetts, United States of America). For western blotting in Caco-2 cell derived NPs and LDNPs, CD 63 antibody from System Bioscience (Palo Alto, California, United States of America) was used.
# Cell culture. Mouse macrophages RAW 264.7 and the human intestinal epithelial cells Caco-2 were maintained in DMEM-high glucose and EMEM-high glucose (Corning; 10-009CV) respectively. The medium was supplemented with 10% fetal bovine serum, 1X penicillin-streptomycin solution (100U/ml penicillin, and 100 μg/ml streptomycin; Sigma Aldrich) in a humidified atmosphere (5% CO2, 95% air, 37° C.). Peritoneal macrophages and bone marrow-derived macrophages (BMDM) were isolated from mice as described in (Ying et al. (2013) Investigation of Macrophage Polarization Using Bone Marrow Derived Macrophages. Journal of Visualized Experiments 76:50323.). Isolated BMDM were then cultured in modified DMEM medium with macrophage colony-stimulating factor (M-CSF), which is a cytokine that directs cell differentiation. Cells were utilized for experimentation at 70-80% confluence. RAW264.7, peritoneal macrophages (PMs) and bone marrow-derived macrophages (BMDMs) were pretreated with LDNPs (0.2 μg/ml for 20 hours) and then treated with E. coli-derived lipopolysaccharides (LPS; O55:B5; Sigma) at 100 ng/mL concentration for 4 hours. Caco-2 cells at 70-80% confluence were treated with LDNPs (0.2 μg/ml), I3A (0.1 mM), the AhR inhibitor, CH-223191 (10 μM) or Nrf2 inhibitor, ML385 (5 μM) for 24 hours. Lamina propria lymphocytes (LPLs) were treated with LDNPs (0.2 μg/ml), I3A (0.1 mM) or the AhR inhibitor, CH223191 (10 μM) for 24 hours.
# Measurement of Cvp1A1 enzyme activity in vitro. Caco-2 cells (50,000 cells/well) were plated in a 48-well plate. Cells were then treated with LDNPs (0.2 μg/ml) or Indole-3-aldehyde (I3A, 0.1 mM) for 24 hours. After treatment, cells were washed to remove any residual LDNPs or I3A, then the wells were replenished with fresh medium containing Cyp1A1 substrate as per the protocol provided with a P450-GLO™ CYP1A1 Assay System brand kit (Promega Corporation, Madison, Wisconsin, United States of America) for 3 hours. After incubation, 25 μl of culture medium was removed from each well and transferred to a 96-well white opaque plate and 25 μl of luciferin detection reagent was added to initiate the luminescence reaction and plate was incubated at room temperature for 20 minutes. After incubation, luminescence was recorded using a luminometer. The data were reported as foldchange over vehicle treatment.
# EGFR = target: T1, EGFR (Mus musculus, UniProt Q01279); experiment: LDNPs-mediated EGFR activation in LPS-treated Raw264.7 cells with AG1478; assay type: cell-based; settings: AG1478 150 nM
# T1 construct: endogenous in cells; host or cells: Raw264.7
# Procedure: as §1
# Raw264.7 cells were pretreated with LDNPs (0.2 μg/ml) or the EGFR inhibitor AG1478 (150 nM) for 20 hours and then treated with LPS for 4 hours to induce inflammation response as depicted in the top panel of the FIG. 13A. The bottom panel of FIG. 13A is a representative western blot of phosphorylated EGFR (P-EGFR Tyr 1068), Total-EGFR, PI3K, phosphorylated Akt (P-Akt), total-Akt, phosphorylated NF-κB (P-NF-κB), and β-actin showing that expression of several of these proteins were modulated by LDNP treatment.
# [2] = alcohol-fed, CH223191 co-administered
# [3] = alcohol-fed, co-fed with CH223191
# [4] = Caco-2, LDNPs 0.2 μg/ml, I3A 0.1 mM, 24 hours
# T1 sequence (Q01279 25-1210): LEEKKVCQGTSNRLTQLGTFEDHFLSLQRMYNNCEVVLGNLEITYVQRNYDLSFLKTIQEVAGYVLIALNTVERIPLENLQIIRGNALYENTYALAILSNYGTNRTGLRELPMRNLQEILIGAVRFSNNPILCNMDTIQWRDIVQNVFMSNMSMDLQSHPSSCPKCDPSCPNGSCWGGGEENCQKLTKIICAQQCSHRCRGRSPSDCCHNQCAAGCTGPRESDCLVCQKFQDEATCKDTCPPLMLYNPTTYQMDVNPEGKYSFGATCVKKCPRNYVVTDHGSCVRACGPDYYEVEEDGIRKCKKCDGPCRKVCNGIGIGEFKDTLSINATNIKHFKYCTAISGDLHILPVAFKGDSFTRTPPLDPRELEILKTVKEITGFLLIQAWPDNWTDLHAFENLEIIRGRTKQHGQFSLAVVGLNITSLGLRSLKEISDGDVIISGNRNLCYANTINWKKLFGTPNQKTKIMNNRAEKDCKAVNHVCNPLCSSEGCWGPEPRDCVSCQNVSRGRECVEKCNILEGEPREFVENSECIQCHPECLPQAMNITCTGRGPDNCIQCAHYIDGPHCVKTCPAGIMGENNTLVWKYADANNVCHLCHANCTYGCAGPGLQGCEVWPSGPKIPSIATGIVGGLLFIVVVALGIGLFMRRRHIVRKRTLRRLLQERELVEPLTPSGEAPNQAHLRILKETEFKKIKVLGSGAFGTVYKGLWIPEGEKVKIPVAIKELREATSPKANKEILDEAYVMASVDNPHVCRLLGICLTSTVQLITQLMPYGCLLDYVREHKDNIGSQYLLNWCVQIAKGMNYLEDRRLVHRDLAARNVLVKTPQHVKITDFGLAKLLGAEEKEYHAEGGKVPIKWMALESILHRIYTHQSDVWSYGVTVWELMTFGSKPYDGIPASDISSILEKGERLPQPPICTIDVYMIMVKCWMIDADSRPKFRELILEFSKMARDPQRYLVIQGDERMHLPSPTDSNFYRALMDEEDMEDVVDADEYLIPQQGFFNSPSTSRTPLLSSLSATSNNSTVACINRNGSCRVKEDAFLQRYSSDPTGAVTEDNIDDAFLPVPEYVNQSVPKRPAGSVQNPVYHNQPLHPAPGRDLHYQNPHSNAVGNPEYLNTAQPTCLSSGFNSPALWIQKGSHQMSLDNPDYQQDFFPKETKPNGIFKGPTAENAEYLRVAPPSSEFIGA
structure (smiles),measurement,setting,value
Cc1ccccc1N=Nc1ccc(NC(=O)c2ccnn2C)c(C)c1 [CH223191],ileum Nqo1 mRNA expression,"AhR; AF mice, agent alone",reduced
same,ileum Nrf2 mRNA expression,"AhR; AF mice, agent alone",reduced
same,LDNP-induced increase of IL-22 protein,AhR; [2],completely inhibited
same,LDNP-induced increase of Il22 mRNA,AhR; [2],completely inhibited
same,suppressive effect of LDNP treatment on hepatic fat,AhR; [2],blunted
same,upregulation of Reg3g by LDNPs,AhR; [2],blocked
same,ileum Cyp1a1 mRNA expression,"AhR; alcohol-fed, LDNPs gavaged with the inhibitor",no change
same,IL-22 protein expression,"AhR; alcohol-fed, agent alone",reduced
same,hepatic bacteria load,"AhR; alcohol-fed, agent alone",significantly increased
same,hepatic fat accumulation,"AhR; alcohol-fed, agent alone",significantly increased
same,ileum Cyp1a1 mRNA expression,"AhR; alcohol-fed, agent alone",reduced
same,ileum Il22 mRNA expression,"AhR; alcohol-fed, agent alone",reduced
same,ileum Reg3g mRNA expression,"AhR; alcohol-fed, agent alone",reduced
same,serum ALT,"AhR; alcohol-fed, agent alone",slightly increased
same,serum AST,"AhR; alcohol-fed, agent alone",slightly increased
same,effects of LDNPs on serum ALT,AhR; [3],blocked
same,effects of LDNPs on serum AST,AhR; [3],blocked
same,effect of LDNPs on hepatic bacteria load,"AhR; alcohol-fed, inhibitor co-administered",blocked
same,LDNPs-induced Cyp1a1 mRNA expression,[1],completely inhibited
same,LDNPs-induced Il22 mRNA expression,[1],completely inhibited
same,LDNPs-induced upregulation of IL-22 protein,[1],completely inhibited
same,LDNPs-induced Cyp1a1 mRNA expression,[1]; listed as CH229131,blocked
same,LDNPs-induced Il22 mRNA expression,[1]; listed as CH229131,blocked
same,I3A-induced Cyp1a1 activity,Caco-2 cells,blocked
same,I3A-induced Cyp1a1 mRNA expression,Caco-2 cells,blocked
same,LDNP-induced Cyp1a1 activity,Caco-2 cells,blocked
same,LDNP-induced Cyp1a1 mRNA expression,Caco-2 cells,blocked
same,LDNP-induced Nrf2 mRNA expression,Caco-2 cells,blocked
same,LDNP-induced Nrf2 protein expression,Caco-2 cells,blocked
COc1cc2ncnc(Nc3cccc(Cl)c3)c2cc1OC [AG1478],LDNP-mediated reduction of IL-1β mRNA,EGFR,inhibited
same,LDNP-mediated reduction of TNF-α mRNA,EGFR,inhibited
"O=Cc1c[nH]c2ccccc12 [I3A, indole-3-aldehyde]",protein expression of tight junction proteins,"Caco-2 cells; Caco-2, LDNPs 0.2 μg/ml, I3A 0.1 mM",increased
same,Cyp1a1 activity,Caco-2 cells; [4],markedly increased
same,Cyp1a1 mRNA expression,Caco-2 cells; [4],markedly increased
Cc1ccccc1C(=O)N1CCc2cc(-c3nc(NC(=O)Cc4ccc5c(c4)OCO5)sc3C)ccc21 [ML385],LDNP-induced Cyp1a1 activity,Caco-2 cells,not
same,LDNP-induced Cyp1a1 mRNA expression,Caco-2 cells,blocked
same,LDNP-induced Nrf2 mRNA expression,Caco-2 cells,completely inhibited
same,LDNP-induced Nrf2 protein expression,Caco-2 cells,completely inhibited
